Experimental data reported in patent US5352680A, “Delta opioid receptor antagonists to block opioid agonist tolerance and dependence” (priority 1992, dated 1994).
Where two headings read alike, the source gives them in different places.

How the values were obtained:
mu opioid receptor [1] = conditions: rats; cited from earlier work
mu opioid receptor [2] = conditions: monkeys; cited from earlier work
mu opioid receptor [3] = conditions: dose used by DeLander et al.; cited from earlier work
[4] = test system: development of morphine tolerance in mice treated acutely with morphine; format: in vivo, mice (male Swiss-Webster); conditions: NTI 10 pmol/mouse i.c.v.; morphine sulfate 100 mg/kg s.c.
[5] = test system: development of physical dependence in mice treated acutely with morphine; format: in vivo, mice (male Swiss-Webster)
[6] = test system: development of morphine tolerance in mice treated chronically with morphine; format: in vivo, mice (male Swiss-Webster); conditions: for increase of the ED50 of morphine sulfate vs control animals: antagonist together with morphine pellets; for effect on development of tolerance: with morphine pellets
Method: (§1) Male Swiss-Webster mice (BioLab, White Bear Lake, Minn.) weighing 20 to 25 g were used. The mice were rendered tolerant to and dependent on morphine by s.c. implantation of one morphine pellet (75 mg free base)/mouse for 3 days according to the procedure of E. L. Way et al., J. Pharmacol. Exp. Ther., 167, 1 (1969). Control animals were implanted with placebo pellets. Mice were anesthetized lightly with methoxyflurane during the implantation process. […] Chem. Pathol. Pharmacol., 16, 721 (1977).
At least 30 mice (10/group) and three to four dose levels were used to determine each ED50 value.
The ED50 values of morphine and their 95% CL were determined by the parallel line assay of D. J. Finney, Statistical Methods in Biological Assay, Hafner Pub. Co., N.Y. (2d ed. 1969) with the aid of a computer program which has the capability to analyze at the same time 12 lines (dose-response curves) and 6 points (dose levels) per line with log and probit transformations and 35 repetitions per point.
(§2) Mice were implanted with a single placebo (control) or morphine pellet (75 mg free base) for 3 days. NTI (10 pmol/mouse) was administered i.c.v. 90 min before and 24 and 48 hr after the morphine pellet implantation. 5'-NTII (10 nmol/mouse) was administered 24 hr before, at the same time as and 24 and 48 hr after the morphine pellet implantation.

[7] = test system: development of physical dependence in mice treated chronically with morphine; test: Naloxone-induced withdrawal jumping: physical dependence, mice treated chronically with morphine; format: in vivo, mice (male Swiss-Webster); conditions: with morphine pellet
Method: as §1, §2

delta opioid receptors [8] = molecular target: T1, delta opioid receptors (Mus musculus, UniProt P32300); test: Antagonism of delta opioid receptor agonists (DSLET) in vivo; parameters: species or system mice
T1 construct: from tissue; host or cells: living mouse, intracerebroventricular dosing (endogenous receptor)
T1 sequence (P32300 whole entry): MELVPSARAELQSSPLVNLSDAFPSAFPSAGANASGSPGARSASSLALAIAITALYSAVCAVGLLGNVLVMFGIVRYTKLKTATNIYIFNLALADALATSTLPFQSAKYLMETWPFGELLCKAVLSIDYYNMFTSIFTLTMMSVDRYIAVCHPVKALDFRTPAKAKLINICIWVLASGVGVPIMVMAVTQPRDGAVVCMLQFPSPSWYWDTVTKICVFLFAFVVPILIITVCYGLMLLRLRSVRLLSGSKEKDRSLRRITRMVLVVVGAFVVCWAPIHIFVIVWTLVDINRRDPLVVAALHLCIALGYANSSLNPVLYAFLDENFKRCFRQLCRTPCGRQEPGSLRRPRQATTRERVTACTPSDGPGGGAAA

mu opioid receptors = test: Effect on antinociceptive activity of the mu agonist DAMGO; format: in vivo, mice (male Swiss-Webster); conditions: NTI 10 pmol/mouse, once or twice; 5'-NTII 10 nmol/mouse 24 hr before DAMGO
Method: (§3) NTI (10 pmol/mouse) was administered 100 min before the i.c.v. injection of DAMGO and 20 min later, at the peak effect of DAMGO, the antinociceptive activity of the peptide was assessed. In another group of mice, NTI (10 pmol/mouse) was administered twice, once at 100 min before and again at the same time as the i.c.v. injection of DAMGO. 5'-NTII (10 nmol/mouse) was administered 24 hr before being tested with DAMGO.

antinociceptive activity = test: Antinociceptive activity of the antagonist itself; format: in vivo, mice; conditions: for antinociceptive activity: mouse, in vivo
delta opioid receptor = test: Delta antagonist potency/selectivity comparison (one assay)
mu opioid receptor [9] = conditions: shown previously; cited from earlier work
kappa opioid receptor [10] = conditions: shown previously; cited from earlier work
delta opioid receptors [11] = conditions: shown previously; cited from earlier work
mu opioid receptor [12] = test: Antagonism of mu opioid receptor agonists; format: in vivo; conditions: 10 nmol/mouse i.c.v., 24 hours
Method: as §3

kappa opioid receptor [13] = test: Antagonism of kappa opioid receptor agonists; format: in vivo; conditions: 10 nmol/mouse i.c.v., 24 hours
delta opioid receptors [14] = molecular target: T1, delta opioid receptors; conditions: previously reported; cited from earlier work

SMILES: COC(=O)/C=C/C(=O)N[C@@H]1CC[C@@]2(O)[C@H]3Cc4ccc(O)c5c4[C@@]2(CCN3CC2CC2)[C@H]1O5 [β-FNA, β-funaltrexamine]
- effect on development of morphine tolerance and dependence (mu opioid receptor [1]): inhibit the development of morphine tolerance and dependence in rats
- withdrawal signs (mu opioid receptor [2]): induce long-lasting withdrawal signs in monkeys
- effect on morphine-induced antinociception (mu opioid receptor [3]): significantly inhibited morphine-induced antinociception

SMILES: Oc1ccc2c3c1O[C@H]1c4[nH]c5ccccc5c4C[C@@]4(O)[C@@H](C2)N(CC2CC2)CC[C@]314 [NTI, 17-(cyclopropylmethyl)-6,7-dehydro-3,14β-dihydroxy-4,5α-epoxy-6,7-2',3'-indolmorphinan]
- effect on development of acute tolerance [4]: completely prevented the development of acute tolerance
- times more naloxone required to precipitate withdrawal jumping ([5]; pretreated twice with NTI before inducing dependence): 45 times
- times more naloxone required to precipitate withdrawal jumping ([5]; single dose of NTI 90 min before or at same time as 100 mg/kg morphine sulfate): about 10 times
- increase of the ED50 of morphine sulfate vs control animals [6]: 2 fold
- effect on development of tolerance [6]: the development of tolerance was suppressed substantially
- effect on development of physical dependence [7]: suppressed the development of dependence substantially
- duration of antagonist activity against delta opioid receptor agonists (delta opioid receptors [8]; NTI, b221: against the antinociceptive effect of DSLET): 18 to 24 h
- effect on the antinociceptive activity of DAMGO (mu opioid receptors): neither NTI nor 5'-NTII, at the dosages and injection protocol used, altered the anti-nociceptive activity of DAMGO
- maximum dose with selective antagonism at delta opioid receptors without detection of antinociceptive activity (antinociceptive activity; i.c.v.): 10 pmol/mouse
- antinociceptive activity (antinociceptive activity): possesses antinociceptive activity
- potency relative to ICI 174864 (delta opioid receptor; vs peptide delta antagonist ICI 174864): at least 500 times
- selectivity relative to M8008 (delta opioid receptor; vs structurally unrelated opiate M8008): more selective than the structurally unrelated opiate M8008
- effect on activity of mu opioid receptor agonists (mu opioid receptor [9]): minimal or no effect
- effect on activity of kappa opioid receptor agonists (kappa opioid receptor [10]): minimal or no effect
- antagonism of delta opioid receptor agonists (delta opioid receptors [11]): highly effective antagonists against the activity of delta opioid receptor agonists

SMILES: Oc1ccc2c3c1O[C@H]1c4[nH]c5ccc(N=C=S)cc5c4C[C@@]4(O)[C@@H](C2)N(CC2CC2)CC[C@]314 [5'-NTII, naltrindole 5'-isothiocyanate]
- increase of the ED50 of morphine sulfate vs control animals [6]: 3 fold
- effect on development of tolerance [6]: the development of tolerance was suppressed substantially
- effect on development of physical dependence [7]: appeared to block it completely
- selectivity for delta opioid receptors (delta opioid receptors [8]; 10 nmol/mouse i.c.v.): high selectivity for delta opioid receptors
- increase of ED50 of DSLET (delta opioid receptors [8]; 24 hours after 10 nmol/mouse i.c.v.): 50 fold
- effect on the antinociceptive activity of DAMGO (mu opioid receptors): neither NTI nor 5'-NTII, at the dosages and injection protocol used, altered the anti-nociceptive activity of DAMGO
- effect on ED50s of mu opioid receptor agonists (mu opioid receptor [12]): without affecting the ED50 s of mu or kappa opioid receptor agonists
- effect on ED50s of kappa opioid receptor agonists (kappa opioid receptor [13]): without affecting the ED50 s of mu or kappa opioid receptor agonists
- antinociceptive activity (antinociceptive activity): without any antinociceptive activity
- duration of action against delta agonists (delta opioid receptors [14]): more than 48 hr
- effect on activity of mu opioid receptor agonists (mu opioid receptor [9]): minimal or no effect
- effect on activity of kappa opioid receptor agonists (kappa opioid receptor [10]): minimal or no effect
- antagonism of delta opioid receptor agonists (delta opioid receptors [11]): highly effective antagonists against the activity of delta opioid receptor agonists
